Test results taken from US9896440B2, “Aryl substituted heterocyclyl sulfones” (GRÜNENTHAL GMBH, priority 2014, dated 2018).

Target: T1, Human CaV2.2 channels (Homo sapiens, UniProt Q00975)
T1 construct: expressed in transfected cells; Kir2.3 also stably co-expressed
Assay: Fluorescence assay for CaV2.2 channels using potassium depolarization to induce channel opening (FLIPR, Fluo 4)
Assay type: cell-based
Settings: 30 mM KCl assay buffer (inactivated channel state), HEK293 cells; for Activity Category: %-Inhib (CaV2.2) @3 μM @30 mM KCl: 3 μM test compound; for inhibition at 3 µM: HEK293, 3 μM test compound, read-out: Activity Category: %-Inhib (CaV2.2) @3 μM @30 mM KCl
Description: In the process, the Ca^2+ influx is quantified in the FLIPR assay with the aid of a Ca^2+-sensitive dye (type Fluo-4, Molecular Probes Europe BV, Leiden, the Netherlands) in a fluorescent imaging plate reader (FLIPR 3, Molecular Devices, Sunnyvale, USA), as described hereinafter.
Human CaV2.2 channels were stably expressed in HEK293 cells together with alpha2-delta and beta subunits of voltage gated calcium channels. In addition, an inwardly rectifying potassium channel (Kir2.3) was stably expressed in these cells to augment control of the cell membrane potential by the concentration of extracellular potassium ions. Raise of the extracellular potassium concentration leads to depolarization of the membrane potential and thus regulates the voltage dependent state of CaV2.2 channels. For preparation, cells were seeded in black poly-D-lysine coated 96-well plates (Becton Dickinson, Biocoat 4640) in 100 μL medium [500 mL DMEM/F-12 plus Glutamax (Invitrogen 31331-093) plus 5.5 mL MEM NEAA 100× (Invitrogen 11140-035) plus 50 mL FBS decomplemented (Invitrogen 10270-106) plus 200 μg/mL Geneticin (Invitrogen 10131-027) plus 50 μg/mL Hygromycin B (Invitrogen 10687-010) plus 2 μg/mL Blasticidin (anti-bl5b Invivo-Gen) plus 0.2 μg/mL Puromycin (A 11138-03)] at a cell density of 30.000 cells per well. Plates were incubated at 37° C. (5% CO2) for 20 to 23 h. On the day of experiment medium was discarded and cells were loaded with Fluo 4 by addition of 100 μL of basic assay buffer (10 mM HEPES, 1 mM KCl, 149 mM NaCl, 0.8 mM CaCl2, 1.7 mM MgCl2, 10 mM Glucose, 0.1% BSA. pH 7.4) containing 2 μM Fluo 4 (Molecular Probes; F-14201), 0.01% pluronic acid (Molecular Probes; P-6866) and 2.5 mM probenecid (Molecular Probes; P36400). Cells were incubated in the dark at 25° C. for 60 min. Then dye containing buffer was discarded and 100 μL basic (1 mM KCl) or alternative (30 mM KCl) assay buffer was added. The alternative assay buffer contained altered concentrations of KCl (30 mM) and NaCl (120 mM) and was used in order to promote the inactivated channel state. After that 25 μL of basic or alternative assay buffer with or without test compound were added and cells were incubated again in the dark at 25° C. for 15 min. Fluorescence intensity was measured on a FLIPR 3 instrument (Molecular Devices Corp., Sunnyvale, Calif.) with excitation at 480 nm and emission at 535 nm. After continuously reading fluorescence for 30 sec, 50 μL of basic assay buffer containing 210 mM KCl (NaCl omitted) were added for depolarization. Peak fluorescent signal intensity was determined and the amplitude of the peak signal, normalized to base line, was used to measure channel inhibition by test compounds.

T1 sequence (Q00975 whole entry): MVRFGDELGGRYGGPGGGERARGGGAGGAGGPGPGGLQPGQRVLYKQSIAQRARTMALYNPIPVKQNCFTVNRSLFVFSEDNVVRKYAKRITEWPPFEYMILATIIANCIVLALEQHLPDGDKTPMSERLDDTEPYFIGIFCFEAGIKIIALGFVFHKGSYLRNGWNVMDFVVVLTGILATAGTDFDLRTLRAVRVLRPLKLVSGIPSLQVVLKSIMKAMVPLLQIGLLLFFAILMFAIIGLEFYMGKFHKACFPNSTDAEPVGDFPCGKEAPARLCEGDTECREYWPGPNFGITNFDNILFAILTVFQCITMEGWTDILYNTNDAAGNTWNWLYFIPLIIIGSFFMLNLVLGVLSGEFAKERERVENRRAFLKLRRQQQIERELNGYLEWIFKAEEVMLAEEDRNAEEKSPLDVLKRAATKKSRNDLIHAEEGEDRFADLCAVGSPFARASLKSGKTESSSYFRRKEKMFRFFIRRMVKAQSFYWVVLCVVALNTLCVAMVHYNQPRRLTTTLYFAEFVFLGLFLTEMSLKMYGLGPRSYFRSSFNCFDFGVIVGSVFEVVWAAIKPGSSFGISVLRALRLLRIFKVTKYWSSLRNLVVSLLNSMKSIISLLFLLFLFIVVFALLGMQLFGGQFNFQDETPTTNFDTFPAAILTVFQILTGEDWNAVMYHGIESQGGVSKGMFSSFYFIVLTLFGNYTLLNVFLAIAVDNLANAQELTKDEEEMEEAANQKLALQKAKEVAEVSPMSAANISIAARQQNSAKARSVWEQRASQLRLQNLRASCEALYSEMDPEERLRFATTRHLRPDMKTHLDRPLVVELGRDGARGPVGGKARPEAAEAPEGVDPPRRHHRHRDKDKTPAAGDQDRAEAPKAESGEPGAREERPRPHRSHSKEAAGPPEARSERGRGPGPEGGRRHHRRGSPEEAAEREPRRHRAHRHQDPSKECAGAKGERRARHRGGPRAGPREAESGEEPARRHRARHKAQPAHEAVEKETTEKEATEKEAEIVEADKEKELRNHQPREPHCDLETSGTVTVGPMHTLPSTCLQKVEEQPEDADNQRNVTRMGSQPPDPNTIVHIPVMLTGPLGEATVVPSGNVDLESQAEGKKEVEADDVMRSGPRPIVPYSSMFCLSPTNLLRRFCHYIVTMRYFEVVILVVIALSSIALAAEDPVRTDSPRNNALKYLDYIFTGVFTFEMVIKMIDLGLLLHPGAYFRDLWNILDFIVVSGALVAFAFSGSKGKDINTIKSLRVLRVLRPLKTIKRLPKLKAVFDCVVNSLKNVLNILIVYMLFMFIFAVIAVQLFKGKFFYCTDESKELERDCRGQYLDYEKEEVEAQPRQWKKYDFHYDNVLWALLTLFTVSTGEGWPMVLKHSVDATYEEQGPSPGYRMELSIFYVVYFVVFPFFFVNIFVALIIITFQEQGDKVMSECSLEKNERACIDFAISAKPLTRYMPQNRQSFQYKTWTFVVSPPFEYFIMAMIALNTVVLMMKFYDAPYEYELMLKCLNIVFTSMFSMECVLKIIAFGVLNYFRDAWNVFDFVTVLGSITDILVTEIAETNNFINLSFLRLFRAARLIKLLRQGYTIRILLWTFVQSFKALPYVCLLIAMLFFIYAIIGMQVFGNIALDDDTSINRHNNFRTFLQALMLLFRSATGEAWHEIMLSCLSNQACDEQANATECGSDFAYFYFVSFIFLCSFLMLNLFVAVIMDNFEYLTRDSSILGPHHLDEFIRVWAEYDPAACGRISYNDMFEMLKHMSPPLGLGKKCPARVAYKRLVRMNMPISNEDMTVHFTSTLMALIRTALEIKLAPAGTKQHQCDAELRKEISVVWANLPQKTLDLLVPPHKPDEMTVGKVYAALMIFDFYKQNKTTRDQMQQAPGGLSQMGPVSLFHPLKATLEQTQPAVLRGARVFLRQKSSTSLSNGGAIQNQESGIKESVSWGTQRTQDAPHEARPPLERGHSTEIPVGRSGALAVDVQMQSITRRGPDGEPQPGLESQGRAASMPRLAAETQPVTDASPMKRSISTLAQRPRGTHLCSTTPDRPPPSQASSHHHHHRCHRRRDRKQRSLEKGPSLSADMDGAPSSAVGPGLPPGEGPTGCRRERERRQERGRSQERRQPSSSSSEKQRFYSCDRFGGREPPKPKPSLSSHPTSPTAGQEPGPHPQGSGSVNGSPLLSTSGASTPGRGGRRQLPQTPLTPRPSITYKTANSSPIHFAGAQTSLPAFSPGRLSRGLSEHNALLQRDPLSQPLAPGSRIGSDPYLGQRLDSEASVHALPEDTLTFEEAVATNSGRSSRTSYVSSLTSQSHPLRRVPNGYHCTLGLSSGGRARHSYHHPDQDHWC

Compound	Activity Category: %-Inhib (CaV2.2) @3 μM @30 mM KCl	inhibition at 3 µM
CC1(S(=O)(=O)c2cccc(C(F)(F)F)c2)CCOC(COc2ccc(S(C)(=O)=O)c(F)c2)C1 (single isomer, unassigned) [SC-151, 2-[(3-Fluoro-4-methylsulfonyl-phenoxy)-methyl]-4-methyl-4-[[3-(trifluoromethyl)phenyl]sulfonyl]-tetrahydro-pyran]	A (%-Inhibition >95%)	–
CC1(S(=O)(=O)c2cccc(C(F)(F)F)c2)COC(c2ccc(Cl)cc2)C1 (centres unmarked) [SC-100, 2-(4-Chlorophenyl)-4-methyl-4-[[3-(trifluoromethyl)phenyl]sulfonyl]-tetrahydro-furan]	–	75 to 95%
CC1(S(=O)(=O)c2cccc(C(F)(F)F)c2)COC(c2ccc(Cl)cc2)C1 (centres unmarked) [SC-101, 2-(4-Chlorophenyl)-4-methyl-4-[[3-(trifluoromethyl)phenyl]sulfonyl]-tetrahydro-furan]	A (%-Inhibition >95%)	–
CC1(S(=O)(=O)c2cccc(C(F)(F)F)c2)COC(c2ccc(Cl)cc2)C1 (centres unmarked) [SC-102, 2-(4-Chlorophenyl)-4-methyl-4-[[3-(trifluoromethyl)phenyl]sulfonyl]-tetrahydro-furan]	B (%-Inhibition >75% up to ≦95%)	–
CC1(S(=O)(=O)c2cccc(C(F)(F)F)c2)COC(c2ccc(Cl)cc2)C1 (centres unmarked) [SC-103, 2-(4-Chlorophenyl)-4-methyl-4-[[3-(trifluoromethyl)phenyl]sulfonyl]-tetrahydro-furan]	A (%-Inhibition >95%)	–
CC1(S(=O)(=O)c2cccc(C(F)(F)F)n2)CCOC(c2ccc(Cl)cc2)C1 (centres unmarked) [SC-104, 2-[[2-(4-Chlorophenyl)-4-methyl-tetrahydro-pyran-4-yl]sulfonyl]-6-(trifluoromethyl)-pyridine]	–	75 to 95%
CC1(S(=O)(=O)c2cccc(C(F)(F)F)n2)CCOC(c2ccc(Cl)cc2)C1 (centres unmarked) [SC-105, 2-[[2-(4-Chlorophenyl)-4-methyl-tetrahydro-pyran-4-yl]sulfonyl]-6-(trifluoromethyl)-pyridine]	A (%-Inhibition >95%)	–
CC1(S(=O)(=O)c2cccc(C(F)(F)F)n2)CCOC(c2ccc(Cl)cc2)C1 (centres unmarked) [SC-106, 2-[[2-(4-Chlorophenyl)-4-methyl-tetrahydro-pyran-4-yl]sulfonyl]-6-(trifluoromethyl)-pyridine]	B (%-Inhibition >75% up to ≦95%)	–
CC1(S(=O)(=O)c2cccc(C(F)(F)F)n2)CCOC(c2ccc(Cl)cc2)C1 (centres unmarked) [SC-107, 2-[[2-(4-Chlorophenyl)-4-methyl-tetrahydro-pyran-4-yl]sulfonyl]-6-(trifluoromethyl)-pyridine]	B (%-Inhibition >75% up to ≦95%)	–
Cc1ccc(C(F)(F)F)cc1S(=O)(=O)C1CCOC(c2ccc(Cl)cc2)C1 (centres unmarked) [SC-108, 2-(4-Chlorophenyl)-4-((2-methyl-5-(trifluoromethyl)phenyl)sulfonyl)tetrahydro-2H-pyran]	–	75 to 95%
CCc1ccc(C(F)(F)F)cc1S(=O)(=O)C1CCOC(c2ccc(Cl)cc2)C1 (centres unmarked) [SC-110, 2-(4-Chlorophenyl)-4-[[2-ethyl-5-(trifluoromethyl)-phenyl]sulfonyl]-tetrahydro-pyran]	B (%-Inhibition >75% up to ≦95%)	–
CCc1ccc(C(F)(F)F)cc1S(=O)(=O)C1CCOC(c2ccc(Cl)cc2)C1 (centres unmarked) [SC-111, 2-(4-Chlorophenyl)-4-[[2-ethyl-5-(trifluoromethyl)-phenyl]sulfonyl]-tetrahydro-pyran]	C (%-Inhibition >40% up to ≦75%)	–
CC1(S(=O)(=O)c2cccc(C(F)(F)F)c2)CCOC(c2ccc(S(C)(=O)=O)cc2)C1 (centres unmarked) [SC-112, 4-Methyl-2-(4-methylsulfonyl-phenyl)-4-[[3-(trifluoromethyl)phenyl]sulfonyl]-tetrahydro-pyran]	–	> 95%
CC1(S(=O)(=O)c2cccc(C(F)(F)F)c2)CCOC(c2ccc(S(C)(=O)=O)cc2)C1 (centres unmarked) [SC-113, 4-Methyl-2-(4-methylsulfonyl-phenyl)-4-[[3-(trifluoromethyl)phenyl]sulfonyl]-tetrahydro-pyran]	B (%-Inhibition >75% up to ≦95%)	–
